Among the data in patent US12723063B2, “GIPR-agonist compounds” (Eli Lilly and Company, priority 2019, dated 2026) are Ki values, retold here.

*1 amine or outer side, *2 acyl side, *3 side chain or, on linkers, in order; H or OH if unused. Where a SMILES comes first, the peptide text is derived from it. Side-chain parts run from the residue outwards. [ ]: non-standard residue; d: D form. The star is where a group is joined. C20 diacid = O=C(O)CCCCCCCCCCCCCCCCCCC(=O)*; γGlu = O=C(O)[C@H](CCC(=O)[*:2])N[*:1]; 4Pal = N[C@@H](Cc1ccncc1)C(=O)O; αMeL = CC(C)C[C@](C)(N)C(=O)O; Orn = NCCC[C@H](N)C(=O)O; AEEA = NCCOCCOCC(=O)O; Aib = CC(C)(N)C(=O)O

This test deals with T1, human GLP-1R (Homo sapiens, UniProt P43220).
T1 construct: expressed in transfected cells; crude membranes
T1 sequence (P43220 24-463): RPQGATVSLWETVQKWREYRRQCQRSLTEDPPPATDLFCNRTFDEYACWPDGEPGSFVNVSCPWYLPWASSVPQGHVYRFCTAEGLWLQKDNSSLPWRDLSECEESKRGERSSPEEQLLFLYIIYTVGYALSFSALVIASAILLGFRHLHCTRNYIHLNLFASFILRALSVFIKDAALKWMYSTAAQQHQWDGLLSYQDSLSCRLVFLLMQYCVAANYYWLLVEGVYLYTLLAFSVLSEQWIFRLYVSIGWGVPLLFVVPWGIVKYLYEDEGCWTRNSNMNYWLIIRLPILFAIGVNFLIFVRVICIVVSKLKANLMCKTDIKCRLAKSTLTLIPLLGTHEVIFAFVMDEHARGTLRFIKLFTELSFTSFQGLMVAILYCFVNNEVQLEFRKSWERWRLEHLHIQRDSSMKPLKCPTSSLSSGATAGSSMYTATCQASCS
Nature of the test: [125I]-GLP-1 binding, SPA with WGA beads, 0.1% bacitracin. Conditions: geometric mean, read-out: hGLP1R Ki. Summed up:
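Binding buffer was 25 mM HEPES pH 7.4 with 2.5 mM CaCl2, 1 mM MgCl2, 0.1% (w/v) bacitracin, 0.003% Tween-20 and EDTA-free protease inhibitors. Four-parameter regression gave IC50, converted to Ki (geometric mean, SEM, n independent days).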
Usually Ki stands for a dissociation constant, usually derived from enzyme kinetics or from competition with a known ligand. For the compound `CC[C@H](C)[C@H](NC(=O)[C@H](CCCN)NC(=O)[C@H](CC(=O)O)NC(=O)[C@H](CC(C)C)NC(=O)[C@](C)(CC(C)C)NC(=O)[C@@H](NC(=O)[C@H](CO)NC(=O)[C@H](Cc1ccc(O)cc1)NC(=O)[C@H](CC(=O)O)NC(=O)[C@H](CO)NC(=O)[C@@H](NC(=O)[C@H](Cc1ccccc1)NC(=O)[C@@H](NC(=O)CNC(=O)[C@H](CCC(=O)O)NC(=O)C(C)(C)NC(=O)[C@@H](N)Cc1ccc(O)cc1)[C@@H](C)O)[C@@H](C)CC)[C@@H](C)CC)C(=O)N[C@@H](Cc1c[nH]cn1)C(=O)N[C@@H](CCC(N)=O)C(=O)NC(C)(C)C(=O)N[C@@H](CCC(=O)O)C(=O)N[C@@H](Cc1ccccc1)C(=O)N[C@H](C(=O)N[C@@H](CCC(=O)O)C(=O)N[C@@H](Cc1ccc(O)cc1)C(=O)N[C@@H](CCCCNC(=O)COCCOCCNC(=O)COCCOCCNC(=O)CC[C@H](NC(=O)CCCCCCCCCCCCCCCCCCC(=O)O)C(=O)O)C(=O)N[C@@H](CC(C)C)C(=O)N[C@@H](CCC(=O)O)C(=O)N[C@@H](C)C(=O)NCC(=O)N1CCC[C@H]1C(=O)N[C@@H](CO)C(=O)N[C@@H](CO)C(=O)NCC(=O)N[C@@H](C)C(=O)N1CCC[C@H]1C(=O)N1CCC[C@H]1C(=O)N1CCC[C@H]1C(=O)N[C@@H](CO)C(N)=O)C(C)C` [Example 104] (H-Y[Aib]EGTFISDYSI[αMeL]LD[Orn]IHQ[Aib]EFVEYK([AEEA-AEEA-γGlu-C20 diacid])LEAGPSSGAPPPS-NH2), the inhibition constant Ki was above 910 nM.

On to `CC[C@H](C)[C@H](NC(=O)[C@H](CCCN)NC(=O)[C@H](CC(=O)O)NC(=O)[C@H](CC(C)C)NC(=O)[C@](C)(CC(C)C)NC(=O)[C@@H](NC(=O)[C@H](CO)NC(=O)[C@H](Cc1ccc(O)cc1)NC(=O)[C@H](CC(=O)O)NC(=O)[C@H](CO)NC(=O)[C@@H](NC(=O)[C@H](Cc1ccccc1)NC(=O)[C@@H](NC(=O)CNC(=O)[C@H](CCC(=O)O)NC(=O)C(C)(C)NC(=O)[C@@H](N)Cc1ccc(O)cc1)[C@@H](C)O)[C@@H](C)CC)[C@@H](C)CC)C(=O)N[C@@H](Cc1c[nH]cn1)C(=O)N[C@@H](CCC(N)=O)C(=O)NC(C)(C)C(=O)N[C@@H](CCC(=O)O)C(=O)N[C@@H](Cc1ccccc1)C(=O)N[C@H](C(=O)N[C@@H](CCC(=O)O)C(=O)N[C@@H](Cc1ccc(O)cc1)C(=O)N[C@@H](CCCCNC(=O)COCCOCCNC(=O)COCCOCCNC(=O)CC[C@H](NC(=O)CCCCCCCCCCCCCCCCCCC(=O)O)C(=O)O)C(=O)N[C@@H](CC(C)C)C(=O)N[C@@H](CCC(=O)O)C(=O)N[C@H](C(=O)NCC(=O)N1CCC[C@H]1C(=O)N[C@@H](CO)C(=O)N[C@@H](CO)C(=O)NCC(=O)N[C@@H](C)C(=O)N1CCC[C@H]1C(=O)N1CCC[C@H]1C(=O)N1CCC[C@H]1C(=O)N[C@@H](CO)C(N)=O)[C@@H](C)O)C(C)C` [Example 105] (H-Y[Aib]EGTFISDYSI[αMeL]LD[Orn]IHQ[Aib]EFVEYK([AEEA-AEEA-γGlu-C20 diacid])LETGPSSGAPPPS-NH2), for which the inhibition constant (Ki) is above 910 nM.

In the case of `CC[C@H](C)[C@H](NC(=O)[C@H](CCCN)NC(=O)[C@H](CC(=O)O)NC(=O)[C@H](CC(C)C)NC(=O)[C@](C)(CC(C)C)NC(=O)[C@@H](NC(=O)[C@H](CO)NC(=O)[C@H](Cc1ccc(O)cc1)NC(=O)[C@H](CC(=O)O)NC(=O)[C@H](CO)NC(=O)[C@@H](NC(=O)[C@H](Cc1ccccc1)NC(=O)[C@@H](NC(=O)CNC(=O)[C@H](CCC(=O)O)NC(=O)C(C)(C)NC(=O)[C@@H](N)Cc1ccc(O)cc1)[C@@H](C)O)[C@@H](C)CC)[C@@H](C)CC)C(=O)N[C@@H](Cc1c[nH]cn1)C(=O)N[C@@H](CCC(N)=O)C(=O)NC(C)(C)C(=O)N[C@@H](CCC(=O)O)C(=O)N[C@@H](Cc1ccccc1)C(=O)N[C@H](C(=O)N[C@@H](CCC(=O)O)C(=O)N[C@@H](Cc1ccc(O)cc1)C(=O)N[C@@H](CCCCNC(=O)COCCOCCNC(=O)COCCOCCNC(=O)CC[C@H](NC(=O)CCCCCCCCCCCCCCCCCCC(=O)O)C(=O)O)C(=O)N[C@@H](CC(C)C)C(=O)N[C@@H](CCC(=O)O)C(=O)N[C@@H](CCC(N)=O)C(=O)NCC(=O)N1CCC[C@H]1C(=O)N[C@@H](CO)C(=O)N[C@@H](CO)C(=O)NCC(=O)N[C@@H](C)C(=O)N1CCC[C@H]1C(=O)N1CCC[C@H]1C(=O)N1CCC[C@H]1C(=O)N[C@@H](CO)C(N)=O)C(C)C` [Example 106] (H-Y[Aib]EGTFISDYSI[αMeL]LD[Orn]IHQ[Aib]EFVEYK([AEEA-AEEA-γGlu-C20 diacid])LEQGPSSGAPPPS-NH2), the Ki is above 910 nM.

On to `CC[C@H](C)[C@H](NC(=O)[C@H](CCCN)NC(=O)[C@H](CC(=O)O)NC(=O)[C@H](CC(C)C)NC(=O)[C@](C)(CC(C)C)NC(=O)[C@@H](NC(=O)[C@H](CO)NC(=O)[C@H](Cc1ccc(O)cc1)NC(=O)[C@H](CC(=O)O)NC(=O)[C@H](CO)NC(=O)[C@@H](NC(=O)[C@H](Cc1ccccc1)NC(=O)[C@@H](NC(=O)CNC(=O)[C@H](CCC(=O)O)NC(=O)C(C)(C)NC(=O)[C@@H](N)Cc1ccc(O)cc1)[C@@H](C)O)[C@@H](C)CC)[C@@H](C)CC)C(=O)N[C@@H](Cc1c[nH]cn1)C(=O)N[C@@H](CCC(N)=O)C(=O)NC(C)(C)C(=O)N[C@@H](CCC(=O)O)C(=O)N[C@@H](Cc1ccccc1)C(=O)N[C@H](C(=O)N[C@@H](CCC(=O)O)C(=O)N[C@@H](Cc1ccc(O)cc1)C(=O)N[C@@H](CCCCNC(=O)COCCOCCNC(=O)COCCOCCNC(=O)CC[C@H](NC(=O)CCCCCCCCCCCCCCCCCCC(=O)O)C(=O)O)C(=O)N[C@@H](CC(C)C)C(=O)N[C@@H](CCC(=O)O)C(=O)NCC(=O)NCC(=O)N1CCC[C@H]1C(=O)N[C@@H](CO)C(=O)N[C@@H](CO)C(=O)NCC(=O)N[C@@H](C)C(=O)N1CCC[C@H]1C(=O)N1CCC[C@H]1C(=O)N1CCC[C@H]1C(=O)N[C@@H](CO)C(N)=O)C(C)C` [Example 107] (H-Y[Aib]EGTFISDYSI[αMeL]LD[Orn]IHQ[Aib]EFVEYK([AEEA-AEEA-γGlu-C20 diacid])LEGGPSSGAPPPS-NH2), for which the inhibition constant (Ki) is above 911 nM.

As to `CC[C@H](C)[C@H](NC(=O)[C@H](CCCN)NC(=O)[C@H](CC(=O)O)NC(=O)[C@H](CC(C)C)NC(=O)[C@](C)(CC(C)C)NC(=O)[C@@H](NC(=O)[C@H](CO)NC(=O)[C@H](Cc1ccc(O)cc1)NC(=O)[C@H](CC(=O)O)NC(=O)[C@H](CO)NC(=O)[C@@H](NC(=O)[C@H](Cc1ccccc1)NC(=O)[C@@H](NC(=O)CNC(=O)[C@H](CCC(=O)O)NC(=O)C(C)(C)NC(=O)[C@@H](N)Cc1ccc(O)cc1)[C@@H](C)O)[C@@H](C)CC)[C@@H](C)CC)C(=O)N[C@@H](Cc1c[nH]cn1)C(=O)N[C@@H](CCC(N)=O)C(=O)NC(C)(C)C(=O)N[C@@H](CC(=O)O)C(=O)N[C@@H](Cc1ccccc1)C(=O)N[C@H](C(=O)N[C@@H](CCC(=O)O)C(=O)N[C@@H](Cc1ccncc1)C(=O)N[C@@H](CCCCNC(=O)COCCOCCNC(=O)COCCOCCNC(=O)CC[C@H](NC(=O)CCCCCCCCCCCCCCCCCCC(=O)O)C(=O)O)C(=O)N[C@@H](CC(C)C)C(=O)N[C@@H](CCC(=O)O)C(=O)NCC(=O)NCC(=O)N1CCC[C@H]1C(=O)N[C@@H](CO)C(=O)N[C@@H](CO)C(=O)NCC(=O)N[C@@H](C)C(=O)N1CCC[C@H]1C(=O)N1CCC[C@H]1C(=O)N1CCC[C@H]1C(=O)N[C@@H](CO)C(N)=O)C(C)C` [Example 108] (H-Y[Aib]EGTFISDYSI[αMeL]LD[Orn]IHQ[Aib]DFVE[4Pal]K([AEEA-AEEA-γGlu-C20 diacid])LEGGPSSGAPPPS-NH2), the inhibitory constant (Ki) was above 910 nM.
